Measurements taken from US20130303564A1, “METHOD FOR TREATING A NEURODEGENERATIVE DISORDER” (RUSH UNIVERSITY MEDICAL CENTER, priority 2012, published 2013).

Experiments:
[1] = test system: GFAP
Procedure: (§1) A) Mice were treated with NaPB (200 mg/kg body wt/d) from 3 h after the last injection of MPTP. Twenty-four h after the last injection of MPTP, ventral midbrain sections were immunostained for GFAP and CD11b. Results represent analyses of four nigral sections (two images per slide) from each of four mice. The mRNA expression GFAP and CD11b was analyzed by semi-quantitative RT-PCR (B) and quantitative real-time PCR (C).
(§2) Recently activation of glial cells is being considered as a pathological hallmark in PD and other neurodegenerative disorders. Increased expression of CD11b, the beta-integrin marker of microglia, represents microglial activation during neurodegenerative inflammation. Similarly, upon activation, astrocytes also express enhanced level of GFAP, which is considered as a marker protein for astrogliosis. We investigated if NaPB could attenuate MPTP-induced activation of glial cells in vivo in the nigra of mice.
(§3) Semi-quantitative RT-PCR analysis for proinflammatory molecules (iNOS, IL-1β and TNF-α) and glial cell markers: Total RNA was isolated from ventral midbrain using Ultraspec-II RNA reagent (Biotecx .Laboratories, Inc., Houston, Tex.) following manufacturer's protocol. To remove any contaminating genomic DNA, total RNA was digested with DNase. RT-PCR was carried out using a RT-PCR kit (Clontech., Mountain View, Calif.) and following primers.
(§4) Real-time PCR analysis: It was performed in the ABI-Prism7700 sequence detection system (Applied Biosystems, Foster City, Calif.) using TaqMan Universal Master mix and optimized concentrations of FAM-labeled probes and primers.

[2] = test system: CD11b
Procedure: as §1, §2, §3, §4

[3] = test system: BV-2 microglial cells; assay: Superoxide production in microglial cells; type: cell-based, mouse; details: 500 μM
Source text: Results represent three independent experiments.
Superoxide measurements: Superoxide production was detected by LumiMax™ Superoxide Anion Detection Kit (Stratagene) as described by us (30).

[4] = test system: chronic MPTP mouse model of PD; details: oral 100 mg/kg body wt/d from the third injection of MPTP/probenecid
Procedure: (§6) A) Six to eight week old male C57BL/6 mice received 10 injections of MPTP (s.c.; 25 mg/kg body weight) together with 10 injections of probenecid (i.p.; 250 mg/kg body weight) for 5 weeks. Control group of mice received only saline. One group of mice were treated with NaPB (100 mg/kg body weight/d) via gavage from the 3rd injection of MPTP/probenecid and continued for 1 week thereafter. Mice were tested for different motor tasks [horizontal activity (C), number of movements (D), rearing (E), and stereotypy (F)] one week after the last injection of MPTP followed by measuring the level of DA in striatum (B). Data are means+SEM of eight mice per group. ^ap<0.001 vs saline; ^bp<0.001 vs MPTP; p<0.05 vs saline; ^dp<0.05 vs MPTP.
(§7) We examined if NaPB was capable of protecting neurons in a chronic model (FIG. 10A). […] We initiated oral NaPB treatment (100 mg/kg body wt/d) from the third injection of MPTP/probenecid (FIG. 10A). […]
Behavioral analyses: Two types of behavioral experiments were conducted. This included open field experiment for locomotor activity and rotorod experiment for feet movement. .Locomotor activity was measured after 7 d of the last dose of MPTP injection in Digiscan Monitor (Omnitech Electronics, Inc., Columbus, Ohio). […] [sequence] software was used to analyze and store horizontal and vertical activity data, which were monitored automatically by infra-red beams.

[5] = test system: NF-κB p65; details: 200 mg/kg body wt/day gavage from 3 h after last MPTP; 24 h after last MPTP
Source text: Twenty-four h after the last injection of MPTP, ventral midbrain sections were immunostained for p65 (low magnification). Midbrain sections of MPTP-intoxicated mice were also double-labeled for p65 and glial cell markers (GFAP for astrocytes and CD11b for microglia). Results represent three independent experiments. D) NF-κB p65 positive cells counted in four nigral sections (two images per slide) from each of four mice in an Olympus IX81 fluorescence microscope using the MicroSuite™ imaging software are mentioned as cells/mm2. ^ap<0.0001 vs saline-control; ^bp<0.0001 vs MPTP.
Next, mice were treated with NaPB (200 mg/kg body wt/day) via gavage from 3 h after the last injection of MPTP and the activation of NF-κB was examined 24 h after the last injection of MPTP.
For acute MPTP intoxication, mice received four intraperitoneal (i.p.) injections of MPTP-HCl (18 mg/kg of free base; Sigma Chemical Co., St. Louis, Mo.) in saline at 2 hr intervals. Control animals received only saline.
For immunofluorescence staining on fresh frozen sections, rat anti-mouse CD11b (1:100), goat anti-mouse GFAP (1:100), rabbit anti NF-κB p65 (1:100), goat anti-NF-κB p65 (1:100), rabbit anti NF-κB p50 (1:100), and rabbit anti-mouse iNOS (1:250) were used. The samples were mounted and observed under a Bio-Rad MRC1024ES confocal laser scanning microscope.

[6] = test system: microglia; details: any of the concentrations tested (data not shown)
Procedure: (§5) Activated microglia and astroglia are known to produce excessive amount of NO having the potential of damaging neurons in neurodegenerative disorders. We investigated the effect of NaPB on the expression of iNOS in microglia. LPS is a prototype inducer of various proinflammatory molecules in different cell types including mouse microglia. Therefore, primary mouse microglia preincubated with different doses of NaPB for 6 h were stimulated with LPS under serum-free condition. […] We used trichostatin A (TSA) and sodium butyrate (NaBu) for this purpose.

[7] = test system: p21^ras
Procedure: A) Mice were treated with NaPB (200 mg/kg body wt/d.) via gavage from 1 d prior to MPTP injection. Six h after the last injection of MPTP, activation of p21^ras and p21^rac was monitored in ventral midbrain tissues. Experiment was repeated three times each time using two animal in each group. […] Results represent three independent experiments.
A) Mice were treated with NaPB (200 mg/kg body wt/d) via gavage from 1 d prior to MPTP injection. At different h of MPTP insult, nigral punches from mice were pooled together and analyzed for the activation of p21′ (A) and the expression of iNOS mRNA (B, RT-PCR; C, real-time PGR). Experiments were repeated three times each time using two animals in each group. ^ap<0.001 vs control (Oh)-iNOS.
Therefore, in order to delineate whether glial activation-associated events happen before or after the loss of dopaminergic neurons, we performed a time-course study to monitor nigral activation of p21^ras and expression of iNOS and striatal loss of dopamine in MPTP-intoxicated mice, Micropunches from the nigra were used for monitoring p21^ras and iNOS.
Animals and MPTP intoxications: Six- to eight-week old C57BL/6 mice were purchased from Harlan, Indianapolis, Ind. […]
Activation of p21^ras and p21^rac: Activation of p21^ras was monitored. […] Then the amount of activated p21^ras was determined in GST beads by a Western blot using a p21^ras specific antibody.

[8] = test system: chronic MPTP mouse model of PD; details: oral 100 mg/kg body wt/d from the third injection of MPTP/probenecid; remark: listed apart in the source
Procedure: as §6, §7
HPLC analysis of striatal dopamine and its metabolite levels: Striatal level of dopamine, DOPAC (3,4-dihydroxyphenylacetic acid) and HVA (homovanillic acid) was quantified. […] After pH adjustment and filtration, lOul of supernatant was injected onto an Eicompak SC-3ODS column (Complete Stand-Alone HPLC-ECD System EiCOMITTEC-500 from JM Science Inc., Grand Island, N.Y.) and analyzed following manufacturer's protocol.

[9] = test system: primary mouse microglia; assay: LPS-induced NO (nitrite) production in primary mouse microglia; type: cell-based
Procedure: Primary mouse microglia were treated with different concentrations of NaPB for 6 h followed by stimulation with LPS under serum-free condition. After 24 h of stimulation, concentrations of nitrite were measured in supernatants (A) and the level of iNOS protein was monitored in cells by Western blot (B). […] After 5 h of stimulation, the expression of iNOS mRNA was monitored by semi-quantitative RT-PCR (C). Cells preinctibated with different concentration of trichostatin A (TSA) and sodium butyrate (NaBu) for 6 h were stimulated with LPS for 24 h under serum-free condition followed by monitoring the level of nitrite in supernatants (p). […] Primary human astroglia isolated from fetal brain tissues were treated with different concentrations of NaPB for 6 h followed by stimulation with IL-1β under serum-free condition. After 48 h of stimulation, concentrations of nitrite (E) were measured in supernatants. Human astroglia plated at 70-80% confluence in 12-well plates were co-transfected with 0.25 μg of phiNOS(7.2)Luc and 12.5 ng of pRL-TK using the Lipofectamine-Plus (Invitrogen). Twenty-four h after transfection, cells received NaPB. After 6 h of incubation, cells were stimulated with IL-1β (20 ng/ml) for 12 h. Firefly (ff-Luc) and Renilla (r-Luc) luciferase activities were obtained by analyzing the total cell extract (F).
as §5
Isolation of Mouse Microglia: Microglia were isolated from mixed glial cultures. Briefly, on day 7-9, the mixed glial cultures were washed three times with Dulbecco's modified Eagle's medium/F-12 and subjected to shaking at 240 rpm for 2 h at 37° C. on a rotary shaker. The floating cells were washed and seeded on to plastic tissue culture flasks and incubated at 37° C. for 1 h. The attached cells were seeded onto new plates for further studies. […] Mouse BV-2 microglial cells (kind gift from Virginia Bocchini of Universityof Perugia) were also maintained and induced as indicated above.

[10] = 200 mg/kg body wt/d from 3 h after last MPTP, RT-PCR, real-time PCR
[11] = 200 mg/kg body wt/d oral from 3 h after last MPTP, 24 h, immunofluorescence

sodium phenylbutyrate [NaPB]
MPTP-induced mRNA expression of GFAP in the nigra [1, 10]: suppressed | GFAP protein expression in the nigra [1, 11]: inhibition | MPTP-induced mRNA expression of CD11b in the nigra [2, 10]: suppressed | CD11b protein expression in the nigra [2, 11]: inhibition | MPP+-induced production of superoxide ([3]; 6 h, 1 μM MPP+): attenuated | LPS-, TNF-α-, IL-1β-, gp120-, and Aβ-induced production of superoxide ([3]; 6 h preincubation, 10 min stimulation): knocked down | locomotor activities (horizontal activity, number of movements, rearing, stereotypy) [4]: improved | level of p65 in the SNpc [5]: markedly inhibited | toxicity to microglia (MTT) [6]: not toxic | activation of p21^ras in the nigra, time course ([7]; 200 mg/kg body wt/d gavage from 1 d prior to MPTP, all time points tested (up to 24 h)): markedly inhibited | MPTP-induced activation of p21^ras in the nigra ([7]; 200 mg/kg body wt/day gavage from 1 d prior to MPTP, 6 h after last MPTP): much decreased activation | striatal DA [8]: significantly protected | inhibition of LPS-induced production of NO ([9]; 1 or 2 h preincubation (data not shown)): not sufficient | inhibition of LPS-induced production of NO ([9]; higher concentrations (>200 μM), 6 h preincubation): markedly suppressed | inhibition of LPS-induced production of NO ([9]; lower concentration (100 μM), 6 h preincubation): not effective
